In ChEMBL document CHEMBL1201862, “PubChem BioAssay data set” (2004):
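Exposure lasted 48 hours, with cells grown in 96-well plates and compounds tested at five concentrations. Abbreviation: GI50, concentration required for 50% inhibition of growth.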 The source made the active and inactive calls. Cut-off read from the data, not from the text of the source: active = GI50 up to about 1.1 µM and inactive = higher.

What was measured:
Experiment in all cases: NCI-60 cell line screen, 48 h
A498 = test system: A498
OVCAR-5 = test system: OVCAR-5
HCC 2998 = test system: HCC 2998
KM-20L2 = test system: KM-20L2
DMS-273 = test system: DMS-273
IGROV-1 = test system: IGROV-1
NCI-H522 = test system: NCI-H522
UACC-62 = test system: UACC-62
M19-MEL = test system: M19-MEL
U-251 = test system: U-251
SNB-78 = test system: SNB-78
COLO 205 = test system: COLO 205
T47D = test system: T47D
Hs-578T = test system: Hs-578T
MDA-N = test system: MDA-N
SR = test system: SR
786-0 = test system: 786-0
BT-549 = test system: BT-549
PC-3 = test system: PC-3
ACHN = test system: ACHN

Measured: GI50

COc1ccccc1Cc1nc(-c2ccccc2)nn(C2OC(COC(C)=O)C(OC(C)=O)C(OC(C)=O)C2OC(C)=O)c1=S (stereo not drawn)
inactive: A498 10.2 µM | OVCAR-5 > 100 µM | HCC 2998 > 24.8 µM | KM-20L2 29.1 µM | DMS-273 > 39.2 µM | IGROV-1 31.1 µM | NCI-H522 6.5 µM | UACC-62 14.5 µM | M19-MEL 32.7 µM | U-251 13.2 µM | SNB-78 18.2 µM | COLO 205 > 40.4 µM

CC1C(=O)C(C)C(c2cccs2)N(N=O)C1c1cccs1 (stereo not drawn)
inactive: OVCAR-5 > 100 µM | HCC 2998 > 100 µM | KM-20L2 > 100 µM | DMS-273 > 100 µM | IGROV-1 > 100 µM | NCI-H522 37.7 µM | UACC-62 > 100 µM | M19-MEL > 100 µM | U-251 > 100 µM | SNB-78 > 68.2 µM | COLO 205 > 100 µM

COc1ccc(/C=C2\CCNC2=O)cc1
inactive: A498 > 53.7 µM | OVCAR-5 > 100 µM | HCC 2998 > 48.5 µM | KM-20L2 > 100 µM | DMS-273 > 100 µM | IGROV-1 > 100 µM | NCI-H522 > 100 µM | UACC-62 > 100 µM | M19-MEL > 100 µM | U-251 > 100 µM | SNB-78 > 100 µM | COLO 205 > 100 µM

CC(C)(C)N1C(C(=O)c2ccccc2)C1c1ccccc1 (stereo not drawn)
inactive: HCC 2998 > 100 µM | DMS-273 > 100 µM | IGROV-1 > 100 µM | NCI-H522 > 100 µM | UACC-62 > 100 µM | M19-MEL > 100 µM | U-251 > 100 µM | SNB-78 > 100 µM | COLO 205 > 100 µM

CC(NC(=O)C(C)NC(=O)C(N)CCP(C)(=O)O)C(=O)O (stereo not drawn)
inactive: A498 > 100 µM | OVCAR-5 > 100 µM | HCC 2998 > 100 µM | KM-20L2 > 100 µM | DMS-273 > 100 µM | IGROV-1 > 100 µM | NCI-H522 > 100 µM | UACC-62 > 100 µM | M19-MEL > 100 µM | U-251 > 100 µM | SNB-78 > 100 µM | COLO 205 > 100 µM

COC(=O)c1cc2c(cc1CC(Cc1ccc3c(c1)CCC3)C(=O)OC)CCC2 (stereo not drawn)
inactive: T47D 26.8 µM | A498 > 100 µM | Hs-578T 66.2 µM | OVCAR-5 60.7 µM | HCC 2998 34.5 µM | MDA-N 38 µM | SR 11 µM | IGROV-1 > 100 µM | 786-0 51.4 µM | NCI-H522 22.2 µM | BT-549 > 100 µM | UACC-62 > 100 µM | PC-3 16.6 µM | U-251 50.9 µM | COLO 205 29.5 µM | ACHN 45.7 µM

Cc1cc2c(cc1C)N1Cc3c(ccc(C)c3C)N(C2)C1.Cc1cc2c(cc1C)N1Cc3cc(C)c(C)cc3N(C2)C1
inactive: HCC 2998 > 100 µM | KM-20L2 52 µM | DMS-273 > 100 µM | IGROV-1 > 100 µM | 786-0 > 100 µM | NCI-H522 53.6 µM | UACC-62 > 100 µM | M19-MEL > 100 µM | U-251 > 100 µM | SNB-78 > 100 µM | COLO 205 > 100 µM

O=C(O)c1cnc2c(ccc3ncc(C(=O)O)c(O)c32)c1O
inactive: T47D > 100 µM | A498 > 100 µM | Hs-578T > 100 µM | OVCAR-5 > 100 µM | MDA-N > 100 µM | SR > 100 µM | IGROV-1 > 100 µM | 786-0 > 100 µM | NCI-H522 > 100 µM | BT-549 > 100 µM | UACC-62 > 100 µM | PC-3 > 100 µM | U-251 > 100 µM | COLO 205 > 100 µM | ACHN > 100 µM
